In PubChem BioAssay (NCI) one finds TGI data, which are given here for eleven molecules.

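The compound was tested at five concentrations on cells cultured in 96-well plates, with a 48-hour exposure period. TGI: concentration producing complete growth inhibition.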

Assay in all cases: inhibition of tumour cell growth, NCI panel, 48 h
In assay [1] the test system is SK-MEL-28 melanoma.
Assay [2] has as its system PC-3 prostate.
Assay [3] deals with SK-MEL-5 melanoma.
For assay [4], the system named is CCRF-CEM leukemia.
Assay [5] has as its system OVCAR-8 ovarian.
The test system of assay [6] is NCI-H460 lung.
Assay [7] relates to UACC-257 melanoma.
For assay [8], the system named is HOP-62 NSCLC.
Assay [9] deals with SF-295 CNS.
Assay [10] concerns T-47D breast.
Assay [11] concerns DU-145 prostate.
In assay [12] the test system is MDA-MB-231 breast.
Assay [13] relates to MDA-N.
The subject of assay [14] is 786-0 renal.
In assay [15] the test system is M14 melanoma.
In assay [16] the test system is SF-268 CNS.
Assay [17] deals with IGROV1 ovarian.
Assay [18] deals with NCI-H522 lung.
For assay [19], the system named is TK-10 renal.
In assay [20] the test system is SF-539 CNS.

Take `CC1(C)[C@H](C(=O)O)N2C(=O)[C@@H](NS(=O)(=O)c3ccc([N+](=O)[O-])cc3)[C@H]2S1(=O)=O`: the TGI in assay [1], in assay [2], in assay [3], in assay [4], in [5] and in [6] was greater than 100 µM throughout. The TGI in assay [7], in assay [8], in [9], in assay [10], in assay [11] and in assay [12] was greater than 100 µM throughout. In addition, the TGI in [13], in assay [14], in [15], in assay [16], in assay [17] and in assay [18] was greater than 100 µM throughout. The TGI in assay [19] and in assay [20] was greater than 100 µM throughout.

For `C=CCn1c(=O)c2ccccc2[n+]2c(C)c(C(=O)OCC)sc12`, the TGI in assay [1], in assay [2], in assay [3], in assay [4], in assay [5] and in [6] was greater than 100 µM each time. For the same molecule, the TGI in [7], in [8], in assay [9], in assay [10], in [11] and in assay [12] was greater than 100 µM each time. The TGI in assay [13], in [14], in assay [15], in assay [16], in assay [17] and in [18] was greater than 100 µM each time. In addition, the TGI in [19] and in assay [20] was greater than 100 µM throughout.

As to `CCOC(=O)c1cnn2c1ncc1c(=O)n(NC(N)=O)ccc12`, the TGI in assay [1], in [2], in assay [3], in [4], in assay [5] and in [6] was greater than 100 µM throughout. For the same molecule, the TGI in [7], in assay [8], in assay [9], in assay [10], in assay [11] and in assay [12] was greater than 100 µM in each case. The TGI in assay [13], in assay [14], in assay [15], in assay [16], in [17] and in assay [18] was greater than 100 µM in each case. For the same molecule, the TGI in assay [19] and in assay [20] was greater than 100 µM each time.

Consider `CO/N=C(\C)c1ccc(Nc2c3ccccc3nc3occc23)cc1`, for which the TGI was found to be 8.62 µM in assay [1]; 49.3 µM in assay [2]; 6.53 µM in assay [3]; 35.9 µM in [4]; 14.8 µM in assay [5]; 9.05 µM in [6]. The TGI in assay [7] came to 44.1 µM; in assay [8] it was 16.2 µM; in assay [9] it was 1.98 µM; in assay [10], 19.2 µM; in assay [11], 10.3 µM; in assay [12], 10.2 µM. The TGI came out at 0.379 µM in assay [13]; 6.67 µM in assay [14]; 9.59 µM in assay [15]; 18.6 µM in [16]; 12.4 µM in assay [17]; 0.311 µM in assay [18]. Further, the TGI stood at 18.4 µM in assay [19] and 2.28 µM in [20].

For the molecule `COc1cc2c(/C=C3/C(=O)N(C)c4ccccc43)c(Cl)[nH]c2cc1C`, the TGI was greater than 100 µM in [1]; 13 µM in assay [2]; 7.41 µM in [3]; greater than 26.8 µM in assay [4]; 3.77 µM in assay [5]; 1.36 µM in [6]. Further, the TGI was 97.6 µM in assay [7]; 3.56 µM in assay [8]; 3.44 µM in [9]; greater than 100 µM in assay [10]; 3.44 µM in assay [11]; 3.68 µM in assay [12]. Further, the TGI in assay [13] is 0.153 µM; in [14], 16.5 µM; in [15], 11.5 µM; in [16], 3.09 µM; in [17] it was 2.7 µM; in [18], 0.518 µM. The TGI in [19] was 5.16 µM; in assay [20], 0.0807 µM.

In the case of `Brc1ccc2[nH]cc(-c3csc(-c4ccccn4)n3)c2c1`, the TGI in assay [1] is greater than 100 µM; in [2] it was 51.7 µM; in [3] it was 55.9 µM; in assay [4] it was greater than 100 µM; in assay [5] it was greater than 100 µM; in assay [6] it was 22.4 µM. For the same molecule, the TGI in [7] was greater than 85.2 µM; in [8], greater than 45.5 µM; in assay [9], greater than 26.4 µM; in assay [10], greater than 100 µM; in [11], greater than 86.5 µM; in assay [12], greater than 75.4 µM. Also, the TGI was greater than 100 µM in assay [13]; 20.3 µM in assay [14]; greater than 100 µM in assay [15]; greater than 59.7 µM in assay [16]; greater than 88.8 µM in assay [17]; greater than 100 µM in assay [18]. The TGI in [19] and in assay [20] was greater than 100 µM each time.

Turning to `COC(=O)CCc1cc(OC)c(O)c(C(Cc2ccc(OC)c(OC)c2)C(=O)OC)c1` (stereo not given), the TGI in assay [1], in assay [2], in [3], in [4], in [5] and in assay [6] was greater than 100 µM throughout. The TGI in assay [7], in [8], in assay [9], in [10], in assay [11] and in [12] was greater than 100 µM throughout. For the same molecule, the TGI in [13], in assay [14], in assay [15], in assay [16], in [17] and in [18] was greater than 100 µM each time. The TGI in assay [19] and in assay [20] was greater than 100 µM throughout.

For `CCCCCCCC1C(C)c2c([nH]c3ccccc23)C2C(=O)N(c3ccc(OC)cc3)C(=O)C21` (stereo not given), the TGI in assay [1] is greater than 10 µM; in assay [2] it was greater than 10 µM; in assay [3] it was greater than 10 µM; in assay [4] it was greater than 6.6 µM; in [5] it was 6.02 µM; in [6], 3.62 µM. Also, the TGI in [7] is 7.65 µM; in [8], greater than 7.78 µM; in assay [9], greater than 6.64 µM; in assay [10] it was greater than 10 µM; in assay [11] it was greater than 10 µM; in assay [12] it was greater than 7.84 µM. The TGI in assay [13] is greater than 10 µM; in assay [14], 3.28 µM; in [15] it was greater than 9.51 µM; in [16], greater than 10 µM; in [17], greater than 10 µM; in assay [18], greater than 10 µM. Further, the figures for the TGI in assay [19] and in assay [20] were 5.37 µM and greater than 7.09 µM, respectively.

In the case of `O=c1sc2c(s1)SSSSS2`, the TGI in [1] is greater than 50 µM; in [2] it was greater than 50 µM; in [3], greater than 50 µM; in assay [4], 42.1 µM; in assay [5], greater than 50 µM; in [6], greater than 50 µM. Further, the TGI in assay [7], in assay [8], in [9], in assay [10], in assay [11] and in assay [12] was greater than 50 µM each time. For the same molecule, the TGI in [13], in assay [14], in [15], in assay [16], in assay [17] and in [18] was greater than 50 µM in each case. In addition, the TGI in assay [19] and in assay [20] was greater than 50 µM each time.

For `CN(C)c1ccc(/C=c2/c3ccccc3n3c2c2ccccc2[n+]3C)cc1`, the TGI was 2.08 µM in assay [1]; 1.54 µM in assay [2]; 0.659 µM in assay [3]; 1.23 µM in [4]; 2.34 µM in assay [5]; greater than 38.2 µM in assay [6]. Moreover, the TGI in assay [7] is 1.51 µM; in assay [8] it was 16.2 µM; in assay [9], 13.1 µM; in assay [10], 1.51 µM; in assay [11], 4.19 µM; in [12] it was 2.42 µM. The TGI is 1.89 µM in assay [13]; 1.69 µM in [14]; 1.69 µM in [15]; 1.98 µM in assay [16]; 2.27 µM in assay [17]; 0.619 µM in assay [18]. For the same molecule, the TGI in assay [19] was 3.36 µM; in assay [20] it was 3.12 µM.

As to `NNC(=O)CSc1nc2ccc(I)cc2c(=O)n1Cc1ccccc1`, the TGI is 80.5 µM in assay [1]; 69.3 µM in [2]; 38.5 µM in assay [3]; 19 µM in assay [4]; greater than 100 µM in assay [5]; 44.7 µM in [6]. The TGI in assay [7] is 44 µM; in assay [8], 43.9 µM; in [9], 53.7 µM; in assay [10] it was greater than 100 µM; in assay [11], greater than 100 µM; in assay [12], 34.1 µM. Further, the TGI in [13] is greater than 100 µM; in assay [14], 30.7 µM; in [15], 40.4 µM; in assay [16], 41.3 µM; in assay [17], 69.3 µM; in assay [18] it was 30.7 µM. The values for the TGI in assay [19] and in assay [20] were 38.7 µM and 52 µM, respectively.
